Measured values as given in the CheMixHub viscosity set.

Assay: xn = mol fraction of the nth substance listed

C1COCO1 + CC(C)O
303.15 K, 101 kPa
Details | viscosity [mPa·s]
x1 = 0.08269 | 1.212
x1 = 0.1686 | 0.9776
x1 = 0.258 | 0.8386
x1 = 0.351 | 0.7477
x1 = 0.4479 | 0.6645
x1 = 0.5489 | 0.6082
x1 = 0.6543 | 0.6033
x1 = 0.7644 | 0.5856
x1 = 0.8795 | 0.5637

CN(C)P(=O)(N(C)C)N(C)C + CC(C)O
303.15 K, 101.3 kPa
Details | viscosity [mPa·s]
x1 = 0.0867 | 1.855
x1 = 0.1008 | 1.87
x1 = 0.1839 | 1.937
x1 = 0.2608 | 1.991
x1 = 0.3481 | 2.075
x1 = 0.4017 | 2.136
x1 = 0.5056 | 2.279
x1 = 0.6052 | 2.407
x1 = 0.705 | 2.547
x1 = 0.7928 | 2.668
x1 = 0.8899 | 2.791

[Al+3].[Cl-].[Cl-].[Cl-] + CC(N)=O
viscosity [mPa·s], 101 kPa
Details | x1 = 0.5 | x1 = 0.52 | x1 = 0.57 | x1 = 0.6
313 K | 59.32 | 47.47 | 44.48 | 40.23
323 K | 41.01 | 32.24 | 30.87 | 28.7

C1COCO1 + CCC(C)O
viscosity [mPa·s]
Details | 298.15 K | 303.15 K | 313.15 K
101 kPa, x1 = 0.1001 | – | 1.516 | –
101 kPa, x1 = 0.2001 | – | 1.181 | –
101 kPa, x1 = 0.3001 | – | 0.9354 | –
101 kPa, x1 = 0.4001 | – | 0.812 | –
101 kPa, x1 = 0.5001 | – | 0.7072 | –
101 kPa, x1 = 0.6001 | – | 0.6589 | –
101 kPa, x1 = 0.7001 | – | 0.612 | –
101 kPa, x1 = 0.8001 | – | 0.5894 | –
101 kPa, x1 = 0.9001 | – | 0.5588 | –
101.33 kPa, x1 = 0.0987 | 1.997 | – | 1.29
101.33 kPa, x1 = 0.1966 | 1.454 | – | 1.016
101.33 kPa, x1 = 0.2957 | 1.149 | – | 0.8449
101.33 kPa, x1 = 0.3994 | 0.9497 | – | 0.7262
101.33 kPa, x1 = 0.5008 | 0.8242 | – | 0.6486
101.33 kPa, x1 = 0.6023 | 0.7412 | – | 0.593
101.33 kPa, x1 = 0.699 | 0.6698 | – | 0.55
101.33 kPa, x1 = 0.8014 | 0.6265 | – | 0.5218
101.33 kPa, x1 = 0.9023 | 0.5997 | – | 0.5052

CC(C)OC(C)C + CCC(C)O
viscosity [mPa·s], 100 kPa
Details | x1 = 0.0813 | x1 = 0.1604 | x1 = 0.2406 | x1 = 0.341 | x1 = 0.447 | x1 = 0.5582 | x1 = 0.6505 | x1 = 0.7374 | x1 = 0.8465 | x1 = 0.9346
293.15 K | 3 | 2.51 | 2.1 | 1.653 | 1.304 | 0.976 | 0.772 | 0.623 | 0.473 | 0.384
298.15 K | 2.51 | 2.09 | 1.75 | 1.395 | 1.122 | 0.846 | 0.678 | 0.56 | 0.44 | 0.365
303.15 K | 2.11 | 1.742 | 1.453 | 1.16 | 0.95 | 0.75 | 0.619 | 0.522 | 0.414 | 0.344
308.15 K | 1.76 | 1.48 | 1.241 | 1.004 | 0.834 | 0.67 | 0.558 | 0.473 | 0.388 | 0.325
313.15 K | 1.49 | 1.25 | 1.06 | 0.87 | 0.73 | 0.596 | 0.51 | 0.44 | 0.361 | 0.307
318.15 K | 1.28 | 1.074 | 0.92 | 0.769 | 0.65 | 0.535 | 0.46 | 0.4 | 0.333 | 0.29
323.15 K | 1.1 | 0.931 | 0.801 | 0.67 | 0.575 | 0.48 | 0.416 | 0.367 | 0.31 | 0.27
